From ChEMBL document CHEMBL1144040, “Inhibitors of anthrax lethal factor based upon N-oleoyldopamine” (Bioorg Med Chem Lett, 2008)
Active and inactive are the calls of the source. The rule behind the calls is not given here.

What was measured:
[1] = target: T1, Lethal factor (Bacillus anthracis) (UniProt P15917); assay: Inhibition of Bacillus anthracis lethal factor up to 100 uM by FRET assay
T1 sequence (whole entry): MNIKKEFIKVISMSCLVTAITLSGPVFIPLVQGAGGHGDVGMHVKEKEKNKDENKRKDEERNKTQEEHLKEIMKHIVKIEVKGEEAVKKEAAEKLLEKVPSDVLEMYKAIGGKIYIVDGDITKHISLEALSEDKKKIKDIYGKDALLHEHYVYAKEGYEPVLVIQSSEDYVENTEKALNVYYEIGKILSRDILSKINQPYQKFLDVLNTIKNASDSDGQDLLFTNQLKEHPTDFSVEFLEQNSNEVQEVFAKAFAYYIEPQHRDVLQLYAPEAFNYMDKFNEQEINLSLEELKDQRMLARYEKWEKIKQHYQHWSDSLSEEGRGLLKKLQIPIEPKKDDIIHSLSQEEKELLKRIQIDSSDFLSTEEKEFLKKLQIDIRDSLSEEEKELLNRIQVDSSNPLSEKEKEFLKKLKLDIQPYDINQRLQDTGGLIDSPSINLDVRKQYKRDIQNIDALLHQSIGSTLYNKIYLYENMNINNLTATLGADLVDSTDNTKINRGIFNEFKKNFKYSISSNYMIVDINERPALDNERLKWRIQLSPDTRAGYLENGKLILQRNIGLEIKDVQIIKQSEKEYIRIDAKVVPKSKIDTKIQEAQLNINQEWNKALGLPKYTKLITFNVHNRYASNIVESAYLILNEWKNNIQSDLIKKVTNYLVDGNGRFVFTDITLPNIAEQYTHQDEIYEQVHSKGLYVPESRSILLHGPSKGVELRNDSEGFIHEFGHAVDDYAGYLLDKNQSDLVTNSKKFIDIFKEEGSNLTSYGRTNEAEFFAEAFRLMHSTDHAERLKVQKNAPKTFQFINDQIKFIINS

[2] = target: T2, Lethal factor (Bacillus anthracis, UniProt P15917); assay: Inhibition of Bacillus anthracis lethal factor by FRET assay
T2 sequence (P15917 whole entry): T1 sequence (whole entry)

[3] = tested on: J774.A1; assay: Inhibition of lethal factor induced toxicity in mouse J774A.1 macrophages after 4 hrs by MTT assay; format: functional, cell-based; conditions: J774.A1, 4 h
[4] = target: T2, Lethal factor; assay: Inhibition of Bacillus anthracis lethal factor by cell-based assay

| SMILES | Activity [1] | Ki [2] [µM] | IC50 [3] [µM] | IC50 [4] [µM] |
| --- | --- | --- | --- | --- |
| CCCCCC(=O)NCCc1ccc(O)c(O)c1 | inactive | – | – | – |
| CCCCCCCC/C=C\CCCCCCCC(=O)NCc1ccc(O)c(O)c1 | – | 2.2 | 4.3 | 15 |
| CCCCCCCC/C=C/CCCCCCCC(=O)NCCc1ccc(O)c(O)c1 | inactive | – | – | – |
| CCCCCCCCCCCCCCCCCC(=O)NCCc1ccc(O)c(O)c1 | inactive | – | – | – |
| CCCCCCCC/C=C\CCCCCCCC(=O)NCc1ccc(C(=O)NO)cc1 | – | 6.2 | – | 42 |
